Where two headings read alike, the source gives them in different places.
Experiments:
Assay in all cases: kinase profiling panel
Type in all cases: biochemical
[1] = target: T1, GCK (Homo sapiens, UniProt Q12851); settings: read-out: % Activity Remaining
T1 sequence (Q12851 1-820): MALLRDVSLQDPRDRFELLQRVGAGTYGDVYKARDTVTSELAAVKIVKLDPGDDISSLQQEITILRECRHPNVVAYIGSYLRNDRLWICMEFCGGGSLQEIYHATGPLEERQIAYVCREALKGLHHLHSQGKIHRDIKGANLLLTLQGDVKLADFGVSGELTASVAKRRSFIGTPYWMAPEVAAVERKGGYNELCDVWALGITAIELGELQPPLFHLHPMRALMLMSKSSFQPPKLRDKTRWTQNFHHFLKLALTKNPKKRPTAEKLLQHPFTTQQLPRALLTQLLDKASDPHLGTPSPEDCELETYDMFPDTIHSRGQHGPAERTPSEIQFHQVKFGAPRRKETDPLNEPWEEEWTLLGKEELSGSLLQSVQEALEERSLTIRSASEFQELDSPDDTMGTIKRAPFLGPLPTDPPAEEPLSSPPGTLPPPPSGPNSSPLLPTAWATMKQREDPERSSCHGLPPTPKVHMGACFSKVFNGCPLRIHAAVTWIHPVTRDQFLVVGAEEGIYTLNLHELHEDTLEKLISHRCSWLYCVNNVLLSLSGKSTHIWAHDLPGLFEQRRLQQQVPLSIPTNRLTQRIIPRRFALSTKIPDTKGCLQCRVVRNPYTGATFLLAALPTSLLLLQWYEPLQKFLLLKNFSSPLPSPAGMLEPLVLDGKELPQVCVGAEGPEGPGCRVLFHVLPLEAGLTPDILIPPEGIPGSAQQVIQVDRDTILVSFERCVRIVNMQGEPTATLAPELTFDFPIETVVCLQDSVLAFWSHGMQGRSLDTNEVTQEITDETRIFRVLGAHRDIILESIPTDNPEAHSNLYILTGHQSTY
From the text: (§1) Protein kinase profiling against a Dundee panel of 140 protein kinases was undertaken at the International Centre for Protein Kinase Profiling. The result for each kinase was presented as a mean kinase activity of the reaction taken in triplicate relative to a control sample treated with DMSO. Assay conditions and abbreviations are available at http://www.kinase-screen.mrc.ac.uk.

[2] = target: GSK3 beta (Homo sapiens, UniProt P49841); settings: read-out: % Activity Remaining
GSK3 beta, sequence (P49841 whole entry): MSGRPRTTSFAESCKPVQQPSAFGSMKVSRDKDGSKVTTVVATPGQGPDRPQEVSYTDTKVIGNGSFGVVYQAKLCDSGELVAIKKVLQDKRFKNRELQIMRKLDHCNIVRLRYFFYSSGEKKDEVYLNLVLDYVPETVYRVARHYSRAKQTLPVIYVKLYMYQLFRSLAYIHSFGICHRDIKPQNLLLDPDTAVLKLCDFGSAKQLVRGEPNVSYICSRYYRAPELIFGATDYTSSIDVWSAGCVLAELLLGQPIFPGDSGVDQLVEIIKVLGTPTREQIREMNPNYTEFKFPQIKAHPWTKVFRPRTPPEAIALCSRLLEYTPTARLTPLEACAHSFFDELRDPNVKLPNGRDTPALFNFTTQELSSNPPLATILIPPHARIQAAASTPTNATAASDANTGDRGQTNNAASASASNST
From the text: as §1

[3] = target: JNK1 (Homo sapiens, UniProt P45983); settings: read-out: % Activity Remaining
JNK1, sequence (P45983 whole entry): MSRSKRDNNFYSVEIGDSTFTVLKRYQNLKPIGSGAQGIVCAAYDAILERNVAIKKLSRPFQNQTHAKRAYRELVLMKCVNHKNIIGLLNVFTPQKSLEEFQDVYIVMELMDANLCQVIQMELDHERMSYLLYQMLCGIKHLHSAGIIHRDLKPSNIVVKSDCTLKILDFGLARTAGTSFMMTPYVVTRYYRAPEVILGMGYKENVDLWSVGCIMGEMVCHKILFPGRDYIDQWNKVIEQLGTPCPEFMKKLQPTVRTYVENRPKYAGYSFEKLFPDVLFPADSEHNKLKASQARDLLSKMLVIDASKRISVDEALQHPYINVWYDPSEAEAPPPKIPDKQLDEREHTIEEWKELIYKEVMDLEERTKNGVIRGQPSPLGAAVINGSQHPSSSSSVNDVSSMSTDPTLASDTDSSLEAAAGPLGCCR
From the text: as §1

[4] = target: MNK1 (Homo sapiens, UniProt Q9BUB5); settings: read-out: % Activity Remaining
MNK1, sequence (Q9BUB5 whole entry): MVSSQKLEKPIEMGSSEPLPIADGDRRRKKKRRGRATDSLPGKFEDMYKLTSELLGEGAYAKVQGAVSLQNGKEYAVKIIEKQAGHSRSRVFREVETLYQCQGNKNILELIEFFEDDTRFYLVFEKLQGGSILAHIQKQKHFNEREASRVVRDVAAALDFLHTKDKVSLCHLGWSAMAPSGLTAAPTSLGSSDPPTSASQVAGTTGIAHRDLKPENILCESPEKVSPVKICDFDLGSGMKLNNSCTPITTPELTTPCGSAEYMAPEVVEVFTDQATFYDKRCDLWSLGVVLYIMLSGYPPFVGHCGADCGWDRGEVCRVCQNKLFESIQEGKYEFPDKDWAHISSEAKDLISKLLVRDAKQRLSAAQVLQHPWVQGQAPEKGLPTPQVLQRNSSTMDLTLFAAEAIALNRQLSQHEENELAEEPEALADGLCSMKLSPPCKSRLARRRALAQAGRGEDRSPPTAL
From the text: as §1

[5] = target: T2, NUAK1 (Homo sapiens, UniProt O60285); settings: read-out: % Activity Remaining
T2 sequence (O60285 1-661): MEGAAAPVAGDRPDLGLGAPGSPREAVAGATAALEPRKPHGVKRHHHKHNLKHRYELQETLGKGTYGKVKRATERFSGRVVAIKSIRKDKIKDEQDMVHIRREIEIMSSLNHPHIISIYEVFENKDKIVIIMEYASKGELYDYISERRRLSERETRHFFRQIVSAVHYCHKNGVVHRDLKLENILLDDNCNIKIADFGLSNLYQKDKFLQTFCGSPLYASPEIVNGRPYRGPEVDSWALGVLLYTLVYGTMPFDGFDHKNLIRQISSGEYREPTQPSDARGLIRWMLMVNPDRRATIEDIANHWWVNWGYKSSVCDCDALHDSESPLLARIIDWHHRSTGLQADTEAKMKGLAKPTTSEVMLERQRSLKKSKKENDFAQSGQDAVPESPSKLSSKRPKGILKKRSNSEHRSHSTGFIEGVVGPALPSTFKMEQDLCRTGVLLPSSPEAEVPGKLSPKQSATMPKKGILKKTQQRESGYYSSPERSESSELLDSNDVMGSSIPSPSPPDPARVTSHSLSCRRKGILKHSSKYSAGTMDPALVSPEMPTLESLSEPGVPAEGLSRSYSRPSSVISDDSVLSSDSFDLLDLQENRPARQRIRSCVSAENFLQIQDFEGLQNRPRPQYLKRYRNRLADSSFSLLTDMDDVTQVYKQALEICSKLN
From the text: as §1

[6] = target: T3, PDK1 (Homo sapiens, UniProt O15530); settings: read-out: % Activity Remaining
T3 sequence (O15530 1-556): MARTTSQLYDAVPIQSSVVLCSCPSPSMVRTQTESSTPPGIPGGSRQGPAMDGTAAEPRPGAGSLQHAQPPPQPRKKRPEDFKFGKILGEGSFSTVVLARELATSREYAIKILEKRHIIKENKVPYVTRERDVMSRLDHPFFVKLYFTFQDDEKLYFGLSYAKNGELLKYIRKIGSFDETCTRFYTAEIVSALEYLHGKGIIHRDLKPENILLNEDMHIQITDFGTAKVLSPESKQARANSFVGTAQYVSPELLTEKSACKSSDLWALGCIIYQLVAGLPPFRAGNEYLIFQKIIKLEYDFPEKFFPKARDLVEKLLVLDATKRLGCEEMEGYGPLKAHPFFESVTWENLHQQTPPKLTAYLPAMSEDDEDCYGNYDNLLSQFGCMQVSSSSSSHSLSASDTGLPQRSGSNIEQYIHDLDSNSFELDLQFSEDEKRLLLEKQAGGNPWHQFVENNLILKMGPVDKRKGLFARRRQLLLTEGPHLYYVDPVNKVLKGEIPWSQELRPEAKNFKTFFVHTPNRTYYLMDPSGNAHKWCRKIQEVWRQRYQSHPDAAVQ
From the text: as §1

[7] = target: PKC alpha (Homo sapiens, UniProt P17252); settings: read-out: % Activity Remaining
From the text: as §1

[8] = target: SIK2 (Homo sapiens, UniProt Q9H0K1); settings: read-out: % Activity Remaining
SIK2, sequence (Q9H0K1 whole entry): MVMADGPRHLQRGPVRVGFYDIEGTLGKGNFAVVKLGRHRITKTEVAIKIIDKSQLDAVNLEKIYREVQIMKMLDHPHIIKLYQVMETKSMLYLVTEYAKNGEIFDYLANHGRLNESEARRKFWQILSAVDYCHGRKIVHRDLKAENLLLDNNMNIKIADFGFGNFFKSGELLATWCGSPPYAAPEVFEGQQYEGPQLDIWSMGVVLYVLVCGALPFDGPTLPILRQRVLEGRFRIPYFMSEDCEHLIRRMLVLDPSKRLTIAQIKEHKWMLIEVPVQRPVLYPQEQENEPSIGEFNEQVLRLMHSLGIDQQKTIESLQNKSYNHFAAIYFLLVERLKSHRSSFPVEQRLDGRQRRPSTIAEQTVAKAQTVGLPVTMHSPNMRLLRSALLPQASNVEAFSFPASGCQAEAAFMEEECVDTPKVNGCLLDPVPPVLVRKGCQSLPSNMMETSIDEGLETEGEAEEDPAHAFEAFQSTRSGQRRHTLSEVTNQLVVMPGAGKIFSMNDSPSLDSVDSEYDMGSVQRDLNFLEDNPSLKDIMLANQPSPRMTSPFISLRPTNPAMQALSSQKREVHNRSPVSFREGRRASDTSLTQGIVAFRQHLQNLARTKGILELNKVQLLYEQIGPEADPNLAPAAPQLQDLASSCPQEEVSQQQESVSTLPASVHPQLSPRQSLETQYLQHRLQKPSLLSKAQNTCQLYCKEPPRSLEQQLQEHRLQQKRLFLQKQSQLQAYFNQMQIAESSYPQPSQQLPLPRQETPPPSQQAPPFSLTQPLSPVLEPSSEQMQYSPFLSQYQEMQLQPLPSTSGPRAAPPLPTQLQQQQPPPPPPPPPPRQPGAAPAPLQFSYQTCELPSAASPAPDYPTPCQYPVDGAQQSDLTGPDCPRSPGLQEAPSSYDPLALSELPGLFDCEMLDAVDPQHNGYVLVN
From the text: as §1

[9] = target: SmMLCK (Homo sapiens, UniProt Q15746)
SmMLCK, sequence (Q15746 923-1914): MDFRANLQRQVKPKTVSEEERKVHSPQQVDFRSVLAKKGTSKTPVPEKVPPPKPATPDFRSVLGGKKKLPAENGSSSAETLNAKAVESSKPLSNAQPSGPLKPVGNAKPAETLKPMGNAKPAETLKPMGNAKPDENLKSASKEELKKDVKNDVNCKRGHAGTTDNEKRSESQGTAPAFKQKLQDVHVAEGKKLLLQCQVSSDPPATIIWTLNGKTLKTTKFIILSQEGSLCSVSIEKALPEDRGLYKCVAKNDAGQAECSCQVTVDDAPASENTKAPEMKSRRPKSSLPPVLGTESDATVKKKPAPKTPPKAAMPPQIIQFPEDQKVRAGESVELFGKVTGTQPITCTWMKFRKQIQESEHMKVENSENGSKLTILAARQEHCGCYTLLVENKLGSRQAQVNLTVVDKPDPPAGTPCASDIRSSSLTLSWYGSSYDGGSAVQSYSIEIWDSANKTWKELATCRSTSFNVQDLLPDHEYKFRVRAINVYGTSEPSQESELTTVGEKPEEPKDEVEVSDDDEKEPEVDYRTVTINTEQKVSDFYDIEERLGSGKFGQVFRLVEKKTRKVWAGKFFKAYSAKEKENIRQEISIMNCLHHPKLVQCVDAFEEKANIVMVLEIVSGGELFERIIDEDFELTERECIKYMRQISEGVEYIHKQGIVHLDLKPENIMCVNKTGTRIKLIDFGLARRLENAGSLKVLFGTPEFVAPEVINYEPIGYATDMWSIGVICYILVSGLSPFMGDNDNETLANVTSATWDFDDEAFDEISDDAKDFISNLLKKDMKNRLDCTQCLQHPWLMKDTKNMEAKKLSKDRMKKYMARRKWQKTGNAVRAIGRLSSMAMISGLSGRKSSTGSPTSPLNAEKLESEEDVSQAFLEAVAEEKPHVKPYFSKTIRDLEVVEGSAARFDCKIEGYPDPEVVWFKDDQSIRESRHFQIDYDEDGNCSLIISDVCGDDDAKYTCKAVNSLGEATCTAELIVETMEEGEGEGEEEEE
From the text: as §1

[10] = target: p38 beta MAPK (Homo sapiens, UniProt Q15759); settings: read-out: % Activity Remaining
p38 beta MAPK, sequence (Q15759 whole entry): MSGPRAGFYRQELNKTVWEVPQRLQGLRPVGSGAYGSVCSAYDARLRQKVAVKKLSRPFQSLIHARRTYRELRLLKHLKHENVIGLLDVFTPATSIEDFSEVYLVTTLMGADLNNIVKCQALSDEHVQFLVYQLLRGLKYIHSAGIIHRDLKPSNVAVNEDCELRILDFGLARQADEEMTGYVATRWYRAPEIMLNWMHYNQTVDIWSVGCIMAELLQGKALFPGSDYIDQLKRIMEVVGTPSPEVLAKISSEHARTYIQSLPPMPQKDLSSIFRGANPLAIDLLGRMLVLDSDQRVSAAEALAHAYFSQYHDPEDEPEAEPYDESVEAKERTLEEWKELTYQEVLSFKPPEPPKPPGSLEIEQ
From the text: as §1

In the case of `COc1ccc(Cl)c(S(=O)(=O)Nc2ccc(-c3nc(OC[C@H]4CNCCO4)c4c(C)n[nH]c4n3)cc2)c1` [290-R, reference compound], the remaining activity at 1 µM [1] was 90%, the remaining activity at 1 µM [2] was 90% and the remaining activity at 1 µM [3] was 101%. For the same compound, the remaining activity at 1 µM [4] was 87%, the remaining activity at 1 µM [5] was 91% and the remaining activity at 1 µM [6] was 117%. The remaining activity at 1 µM [7] was 113%, the remaining activity at 1 µM [8] was 91% and the remaining activity at 1 µM [9] was 23%. For the same compound, the remaining activity at 1 µM [10] was 99%.

In the case of `Cc1ccc(F)c(S(=O)(=O)Nc2ccc(-c3nc(OC[C@H]4CNCCO4)c4cn[nH]c4n3)cc2)c1` [308-R, reference compound], the remaining activity at 1 µM [1] was 80%, the remaining activity at 1 µM [2] was 92% and the remaining activity at 1 µM [3] was 112%. For the same compound, the remaining activity at 1 µM [4] was 77%, the remaining activity at 1 µM [5] was 103% and the remaining activity at 1 µM [6] was 88%. The remaining activity at 1 µM [7] was 135%, the remaining activity at 1 µM [8] was 55% and the remaining activity at 1 µM [9] was 74%. It also gave a remaining activity at 1 µM [10] of 116%.

`Cc1ccc(F)c(S(=O)(=O)Nc2ccc(-c3nc(OC[C@H]4CN(CCCCCCOCCOCCOCC(=O)N[C@H](C(=O)N5C[C@H](O)C[C@H]5C(=O)NCc5ccc(-c6scnc6C)cc5)C(C)(C)C)CCO4)c4cn[nH]c4n3)cc2)c1` [SGK3-PROTAC1] gave a remaining activity at 1 µM ([1]; 1 µM) of 99%, a remaining activity at 1 µM ([2]; 1 µM) of 108% and a remaining activity at 1 µM ([3]; 1 µM) of 117%. It also gave a remaining activity at 1 µM ([4]; 1 µM) of 108%, a remaining activity at 1 µM ([5]; 1 µM) of 98% and a remaining activity at 1 µM ([6]; 1 µM) of 99%. The remaining activity at 1 µM ([7]; 1 µM) was 121%, the remaining activity at 1 µM ([8]; 1 µM) was 95% and the remaining activity at 1 µM [9] was 53%. It also gave a remaining activity at 1 µM ([10]; 1 µM) of 107%.

In the case of `Cc1ccc(F)c(S(=O)(=O)Nc2ccc(-c3nc(OC[C@H]4CN(CCCCCCOCCOCCOCC(=O)N[C@H](C(=O)N5C[C@@H](O)C[C@H]5C(=O)NCc5ccc(-c6scnc6C)cc5)C(C)(C)C)CCO4)c4cn[nH]c4n3)cc2)c1` [cisSGK3-PROTAC1], the remaining activity at 1 µM ([1]; 1 µM) was 96%, the remaining activity at 1 µM ([2]; 1 µM) was 106% and the remaining activity at 1 µM ([3]; 1 µM) was 119%. The remaining activity at 1 µM ([4]; 1 µM) was 103%, the remaining activity at 1 µM ([5]; 1 µM) was 90% and the remaining activity at 1 µM ([6]; 1 µM) was 87%. For the same compound, the remaining activity at 1 µM ([7]; 1 µM) was 118%, the remaining activity at 1 µM ([8]; 1 µM) was 94% and the remaining activity at 1 µM [9] was 71%. It also gave a remaining activity at 1 µM ([10]; 1 µM) of 112%.
